We go through 64 molecules from the supplement of paper PMC6723410.

SMILES strings stand for the structures.

One assay deals with GUMC-403. The assay can be described thus: viability at highest tested concentration (max response) relative to DMSO (% of DMSO control); higher = less cytotoxic. The note with it: library / dose series: MIPE library, 11-point 1:3 dilution; top concentration 23 µM; 48 h. In short, it runs like this: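 Each figure stands for viability at the highest tested concentration compared with vehicle control. It was measured by CellTiter-Glo luminescence on a ViewLux after 48 h of exposure to 23 nL of pinned compound, with vehicle wells taken as 100% and empty wells as 0%. The cells were patient-derived GUMC-403 papilloma cells grown by conditional reprogramming, plated at 700/well in 5 μL F + Y medium in 1536-well plates.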
For `C[C@]\12CC[C@H](O)CC1=C/C[C@@H]3[C@@H]2CC[C@@]\4(C)[C@H]3C\C=C4C5=CN=CC=C5`, the viability worked out at 110.

The assay is the same for the next values; noted with them: library / dose series: MIPE library, 11-point 1:3 dilution; top concentration 46.1 µM; 48 h.
With `CN(C)C(=O)[C@H](O)[C@H](Cc1ccccc1)NC(=O)c1cc2cc(Cl)ccc2[nH]1`, the viability worked out at 114.
For `CCOC(=O)[C@H](CCc1ccccc1)N[C@H]1CCc2ccccc2N(CC(=O)O)C1=O`, the viability stood at 124.
In turn, `Cc1cnc(Nc2cccc(CN3CCOCC3)c2)nc1Nc1cccc([S+](=O)([O-])NC(C)(C)C)c1` gave a viability of 101.
The same measure, in the same setting: the result for `N#Cc1ccc(COC[C@H]2O[C@@H](n3c(NCc4ccc(Cl)c(Cl)c4)nc4c(N)ncnc43)[C@H](O)[C@@H]2O)cc1` reads 89.
On the same count and under the same terms, the result for `Oc1cc2c(cc1O)C1c3ccc(O)c(O)c3OCC1(O)C2` (centres undefined) reads 129; that for `CC(O)(C#Cc1ccc2c(c1)N(c1nc(N)ncc1Cl)CC2)c1nccs1` (centres undefined), 86.5; that for `CC1(C)CC\C2=C(/O1)C3=C(C=CC=C3)C(=O)C2=O`, 123.
Still for that read-out and setting: the result for `CN1C(=O)COc2c(C(=O)NC3CN4CCC3CC4)cc(Cl)cc21` (centres undefined) reads 107; that for `F\C1=C\NC(=O)NC1=O`, 109.
`CC(=O)O/N=C1/C(=C2\C(=O)Nc3cc(Br)ccc32)Nc2ccccc21` had a viability of 122.
Same read-out and setting: the result for `COc1ccc(N(C(=O)Oc2c(C)cccc2C)c2ccnc(Nc3ccc(N4CCN(C)CC4)cc3)n2)c(OC)c1` reads 83.2; that for `NNC(=O)c1ccncc1`, 104.
On the same count and under the same terms, the result for `CCOC(=O)c1ccc(OC(=O)CCCCCNC(=N)N)cc1` reads 138; that for `CCCOc1ccc2[nH]c(NC(=O)OC)nc2c1`, 108; that for `CC(C)(S)[C@@H](N)C(=O)O`, 128.
The same measure, in the same setting: the same measure for `O=C(Nc1cccc2c(=O)cc(-c3nnn[nH]3)oc12)c1ccc(OCCCCc2ccccc2)cc1`: 87; for `COc1ccc(-c2cc3nccn3c(Nc3ncccc3C(N)=O)n2)cc1OC`: 107; for `CN(C)C(=N)NC(=N)N`: 122.
In turn, `NCCc1c[nH]cn1` came in with a viability of 135.
Molecule `CN[C@H](CC(C)C)C(=O)N[C@H]1C(=O)N[C@@H](CC(N)=O)C(=O)N[C@H]2C(=O)N[C@H]3C(=O)N[C@H](C(=O)N[C@H](C(=O)O)c4cc(O)cc(O)c4-c4cc3ccc4O)[C@H](O)c3ccc(c(Cl)c3)Oc3cc2cc(c3O[C@@H]2O[C@H](CO)[C@@H](O)[C@H](O)[C@H]2O[C@H]2C[C@](C)(N)[C@H](O)[C@H](C)O2)Oc2ccc(cc2Cl)[C@H]1O` yielded a viability of 119.
Same read-out and setting: the result for `Oc1ccc(OCc2ccccc2)cc1` reads 110; that for `O=c1[nH]c2ccccc2n1C1CCN(Cc2ccc(-c3nc4cc5nc[nH]c5cc4nc3-c3ccccc3)cc2)CC1`, 103; that for `ClC1=CC(=CC=C1)N2CCN(CCCN3\N=C4\C=C/C=C\N4C3=O)CC2`, 103.
The same measure, in the same setting: the result for `Cc1cc2c(cc1C1(c3ccc(C(=O)O)cn3)CC1)C(C)(C)CCC2(C)C` reads 129.
`CC(=O)NCCC(=O)N[C@@H](CCC(N)=O)C(=O)N[C@@H](CO)C(=O)N[C@@H](CCC(N)=O)C(=O)N[C@@H](CCC(N)=O)C(=O)N[C@H](C(=O)N[C@@H](Cc1ccccc1)C(=O)N[C@]1(C)CCCCCC/C=C\CCC[C@@](C)(C(=O)N[C@@H](CCC(N)=O)C(=O)N[C@@H](CC(N)=O)C(N)=O)NC(=O)[C@H](CC(C)C)NC(=O)[C@H](CC(C)C)NC(=O)[C@@H](CCCNC(=N)N)NC(=O)[C@H](Cc2c[nH]c3ccccc23)NC(=O)[C@H](CC(C)C)NC(=O)[C@H](CC(N)=O)NC1=O)[C@H](C)O` gave a viability of 99.6.
Still for that read-out and setting: the result for `CC(=O)N[C@H]1[C@H](O[C@@H]2c3ccc(c(Cl)c3)Oc3cc4cc(c3O[C@@H]3O[C@H](CO)[C@@H](O)[C@H](O)[C@H]3NC(=O)CCCCCCCC(C)C)Oc3ccc(cc3Cl)C[C@H]3NC(=O)[C@H](N)c5ccc(O)c(c5)Oc5cc(O)cc(c5)[C@H](NC3=O)C(=O)N[C@H]4C(=O)N[C@H]3C(=O)N[C@@H]2C(=O)N[C@@H](C(=O)O)c2cc(O)cc(O[C@H]4O[C@H](CO)[C@@H](O)[C@H](O)[C@@H]4O)c2-c2cc3ccc2O)O[C@H](CO)[C@@H](O)[C@@H]1O` reads 121.
On to `CCCCCCCCCCCCCCCC(=O)O[C@@H]1[C@@H](O)[C@@H](O)[C@@H]([C@H](NC(=O)[C@@H]2C[C@@H](CCC)CN2C)[C@H](C)Cl)O[C@@H]1SC.Cl`, for which the viability came out at 116.
`COc1ccc2c(c1)c(CC(=O)O)c(C)n2C(=O)c1ccc(Cl)cc1` came in with a viability of 111.
The same measure, in the same setting: the same measure for `CC[C@H]1OC(=O)[C@H](C)[C@@H](O[C@H]2C[C@@](C)(OC)[C@@H](O)[C@H](C)O2)[C@H](C)[C@@H](O[C@@H]2O[C@H](C)C[C@H](N(C)C)[C@H]2O)[C@](C)(O)C[C@@H](C)CN(C)[C@H](C)[C@@H](O)[C@]1(C)O`: 109.
Still for that read-out and setting: the same measure for `Cc1ccc(-c2ncn(-c3ccc(Nc4nccc(-c5cccc(N6CCOCC6)c5)n4)cc3)n2)cn1`: 32.
On the same count and under the same terms, the result for `N#C/C(=C\c1ccc(O)c(O)c1)C(=O)NCc1ccccc1` reads 110; that for `C[S+](=O)([O-])Oc1ccc2c(NC(N)=O)c(C(=O)c3ccc(Cl)cc3Cl)oc2c1`, 108.
As to `CCN(CC)C(=O)C1=CC=C(C=C1)C/2=C/C3(CCNCC3)OC4=CC=CC(=C24)O`, the viability came to 125.
Regarding `OC1=CC2=C(C=C1)C(=O)\C(=C(O2)\C3=CC(=C(O)C=C3)O)O`, the viability is 72.6.
On the same count and under the same terms, the same measure for `COC(=O)C1C2CC3c4[nH]c5cc(OC)ccc5c4CCN3CC2CC(OC(=O)c2cc(OC)c(OC)c(OC)c2)C1OC` (centres undefined): 101; for `CCC(c1ccc(O)cc1)C(CC)c1ccc(O)cc1` (centres undefined): 116.
Same read-out and setting: the result for `CNNCc1ccc(C(=O)NC(C)C)cc1` reads 149; that for `CC[C@H](CC#N)OC(=O)N[C@@H](C)c1cccc(NC(=O)Nc2ccc(-c3cnco3)c(OC)c2)c1`, 124.
The same measure, in the same setting: the same measure for `O=C1NC(=O)/C(=C/c2ccc(-c3ccc(F)cc3O)o2)S1`: 83; for `CCCC1=N[N](C)C2=C1\N=C(/NC2=O)C3=CC(=CC=C3OCC)[S+]([O-])(=O)N4CCN(C)CC4`: 74.6.
For `Fc1cc(-c2cccc3ncc(-c4cnn(C5CCNCC5)c4)nc23)cc(F)c1CN1CCOCC1`, the viability came to 108.
Same read-out and setting: the same measure for `CC(C)[C@H](O)C(=O)N[C@@H](C)C(=O)N[C@@H]1C(=O)N(C)CCc2ccccc21`: 84.6; for `CN(C(Cc1ccc(O[S+](=O)([O-])c2cccc3cnccc23)cc1)C(=O)N1CCN(c2ccccc2)CC1)[S+](=O)([O-])c1cccc2cnccc12` (centres undefined): 83.2.
Still for that read-out and setting: the same measure for `CCN(CCO)CCCC(C)Nc1ccnc2cc(Cl)ccc12` (centres undefined): 116; for `O=C(O)C1CCCN(CCC=C(c2ccccc2)c2ccccc2)C1` (centres undefined): 102; for `C[C@]12CC[C@H]3[C@@H](CCC/4=C/C(=O)CC[C@]34C)[C@@H]1CC[C@@H]2O`: 112.
The same measure, in the same setting: the result for `Cc1ccc(CN2CCNCC2)cc1NC(=O)CNc1ccc(F)c(F)c1` reads 98.9; that for `O=C(O)c1cc(/N=N/c2ccc([S+](=O)([O-])Nc3ccccn3)cc2)ccc1O`, 121; that for `CC/C=C\C[C@H]1C(=O)CC[C@@H]1CC(=O)OC`, 120.
`ClC/1=C(NCCN2CCOCC2)/C(=O)C3=C(C=CC=N3)C1=O` yielded a viability of 2.43.
Still for that read-out and setting: the same measure for `CN(C)c1ccc(-c2nc3c(N4CCN(CC(=O)Nc5nccs5)CC4)c(Cl)cnc3[nH]2)cc1`: 110; for `CC[C@H](NC(=O)[C@H](C)NC)C(=O)N1C[C@@H](O)C[C@H]1Cc1c(-c2[nH]c3cc(F)ccc3c2C[C@@H]2C[C@H](O)CN2C(=O)[C@H](CC)NC(=O)[C@H](C)NC)[nH]c2cc(F)ccc12`: 108; for `N=C(N)c1ccc(OCCCCCOc2ccc(C(=N)N)cc2)cc1`: 101.
As to `CCNC(=O)CCC/C=C\C[C@@H]1[C@@H](/C=C/C(O)CCc2ccccc2)[C@@H](O)C[C@@H]1O` (some centres undefined), the viability came out at 109.
As for `COC1=CC=C(C=C1)C/2=C(OC3O[C@@H](C)[C@H](O)[C@@H](O)[C@H]3O)/C(=O)C4=C(O2)C(=C(OC5O[C@H](CO)[C@@H](O)[C@H](O)[C@H]5O)C=C4O)CC=C(C)C` (some centres undefined), the viability is 117.
The molecule `C[C@@]1(C(=O)Nc2ccc(F)nc2)CCCN1c1nc(Nc2cc(C3CC3)[nH]n2)c2cccn2n1` came in with a viability of 63.1.
On the same count and under the same terms, the result for `Cc1cnc(Nc2ccc(F)cc2Cl)nc1-c1c[nH]c(C(=O)N[C@H](CO)c2cccc(Cl)c2)c1` reads 80.9.
Still for that read-out and setting: the same measure for `c1cc(CN2CCCNCCNCCCNCC2)ccc1CN1CCCNCCNCCCNCC1`: 144; for `CCCC1=NC(=C2[N]1NC(=N\C2=O)/C3=CC(=CC=C3OCC)[S+]([O-])(=O)N4CCN(CC)CC4)C`: 102.
The same measure, in the same setting: the result for `Cc1ccc(NC(=O)c2cccc(N(C)C)c2)cc1NC(=O)c1ccc(O)cc1` reads 96.6; that for `Cc1c[nH]c(-c2cnc(NCCNc3ccc(C#N)cn3)nc2-c2ccc(Cl)cc2Cl)n1`, 77.1; that for `C[C@]12CC[C@H]3[C@@H](C\C=C/4C[C@@H](O)CC[C@]34C)[C@@H]1CCC2=O`, 101.

Staying with this assay, now noted: library / dose series: MIPE library, 11-point 1:3 dilution; top concentration 92.2 µM; 48 h.
In turn, `COC1=CC=CC=C1C2=CC=CC(=C2)C/3=C(O)/C4=CC(=C(Cl)C=C4NC3=O)C#N` yielded a viability of 142.
